From paper PMC5354900, “Peptide-guided targeting of GPR55 for anti-cancer therapy” (Oncotarget, 2016) come the findings set out here.

Positions of bridges follow the written chain, without caps; N, C: chain ends. Residues, ends and D or L forms follow the SMILES beside them. *: point of attachment. FITC = O=C1OC2(c3ccc(O)cc3Oc3cc(O)ccc32)c2ccc(NC(=S)*)cc21; Ahx = NCCCCCC(=O)O

Assay [1] relates to EHEB cells. The experiment in a line: annexin-V staining of EHEB cells (FACS). The format is cell-based, human. The source says:
In parallel, for analysis of apoptosis markers, 200,000 cells/sample were harvested, washed in PBS, stained with fluorescent annexin V using human annexin V-FITC kits (Bender MedSystems GmbH, Vienna, Austria), according to the manufacturer instructions, and analyzed by FACS.

Assay [2] concerns EHEB cells. The experiment in a line: growth of EHEB cells (cell counting). The assay is classed as cell-based, human. Conditions: ML-191 0.5 μM, 96 h. How it is done:
(§1) HEK293 cells were bought in 2012, from the American Type Culture Collection (ATCC catalogue number: CRL-11268), and were grown in monolayers in DMEM supplemented with 10% FBS, 2 mM L-glutamine, 100 U/ml penicillin, and 100 μg/ml streptomycin. HeLa cells were received from Dr. D. Corda, Institute of Protein Biochemistry, CNR, Naples, which were bought in 2006 from the European Collection of Cell Culture (ECACC catalog number: 93021013). Wild-type HeLa cells were maintained in MEM with 10% FBS, 2 mM L-glutamine, 100 U/ml penicillin, 100 μg/ml streptomycin, and nonessential amino acids (i.e., 100 μM glycine, L-alanine, L-asparagine, L-aspartic acid, L-glutamic acid, L-proline, L-serine). The HeLa clones were selected in the presence of 0.3 μg/ml puromycin. CHO cells were received from Dr. D. Corda, and were grown in DMEM supplemented with 10% FBS, 2 mM L-glutamine, 100 U/ml penicillin, 100 μg/ml streptomycin, and nonessential amino acids. EHEB cells are an Epstein-Barr-virus-immortalized cell line that was established from a chronic lymphocytic leukemia patient, and these were purchased from DSMZ (Deutsche Sammlung von Mikroorganismen und Zellkulturen GmbH, Braunschweig, Germany). DeFew cells are a non-Hodgkin lymphoma cell line, and these were obtained from Prof. G. Scala, ‘Magna Graecia’ University of Catanzaro [46–48]. Both of these human B-lymphoblastoid cell lines were maintained in RPMI 1640 with 10% heat-inactivated (30 min at 55°C) FBS, 2 mM L-glutamine, 100 U/ml penicillin, and 100 μg/ml streptomycin, and were routinely tested for BCR expression and anti-IgG stimulation, according to previous studies. All of the cells were grown in a humidified atmosphere of 5% CO2 and at 37°C return.
(§2) The EHEB cell growth rate was evaluated by cell counting. EHEB and DeFew cells were plated into 24-well plates in 400 μl growth medium at a density of 25,000 cells/ml. The cells were grown in the absence and presence of different agents, which were added immediately after cell plating and replenished every 24 h. Every 24 h, the cells were put through independent and blinded counts in triplicate, using a Neubauer cell-counting chamber. After 48 h, the cells were diluted 1:2 with fresh medium and 400 μl were transferred in a new 24-well for the following peptide additions. At 96 h, the cells were counted with 0.2% trypan blue, to determine cell viability.

In a further assay the test system is DeFew cells. The assay is described as follows: growth of DeFew cells (cell counting). The assay is classed as cell-based, human. Conditions: ML-191 0.5 μM, 96 h. How it is done:
as §1, §2

The test system of another assay is HA-GPR55. The assay is described as follows: confocal co-localization of FITC-P1 with HA-GPR55 in HeLa cells. The format is cell-based, human. As to conditions: 40 μg/ml (26.8 μM) FITC-P1, 1 h, live HeLa cells overexpressing HA-GPR55. The protocol:
HEK293 or CHO cells were rinsed with PBS, fixed for 10 min at room temperature in 4% (v/v) paraformaldehyde, and permeabilized in 0.02% saponin, 0.5% BSA, and 50 mM ammonium chloride in PBS (blocking solution). Then, the cells were stained with an anti-HA antibody (1:1,000) for 1 h at room temperature for GPR55 visualization, followed by 30 min at room temperature with Alexa488- or Alexa568-conjugated anti-mouse secondary antibodies (1:800), with 33 nM Alexa546-labeled phalloidin (Life Technologies) for filamentous actin visualization, or 2 μg/ml Hoechst (Sigma) for nuclei staining, with all reagents diluted in blocking solution. Then, the cells were washed three times with PBS plus 0.02% Tween-20, and the coverslips were mounted and examined by confocal microscope (LSM 510; Zeiss, Germany), with images acquired using the ZEN 2.1 (black) program (Carl Zeiss Microscopy GmbH 1997-2015). For localization studies of FITC-P1 and GPR55 in live HeLa cells, the cells were incubated with an anti-HA antibody (1:1,000) in PBS plus 3% BSA for 1 h on ice, then washed with PBS, and incubated with an Alexa568-conjugated anti-mouse secondary antibody (1:800) in PBS plus 3% BSA for 45 min on ice. The cells were then incubated with FITC-P1 as reported, fixed for 10 min in 4% (v/v) paraformaldehyde, and examined by confocal microscopy, as above.

In a further assay the test system is GPR55 (HeLa cells). The assay is described as follows: FITC-peptide binding to HeLa cells silenced for GPR55 (siRNA, shRNA) or re-expressing HA-GPR55 (FACS). The arrangement: species or system human. Conditions: 40 μg/ml, 1 h at 37°C. The protocol:
For transient interference of GPR55, HeLa cells were plated at 150,000 cells/6-well plate in growth medium without antibiotics, and 24 h later they were transfected with 75 pmol/well non-targeting #2 siRNA (siNT) or human GPR55-targeting siRNAs (D-00581-05) (siGPR55) (siGENOME, Dharmacon, Chicago, IL, USA), using Lipofectamine 2000, according to the manufacturer instructions. Twenty-four hours later, the cells were detached by trypsinization, plated again at 150,000 cells/6-well plate, and 10 h later they were re-transfected with siNT or with siGPR55. Forty-eight hours later, the cells were analyzed. For stable interference of GPR55, HeLa cells were transfected with 1.7 μg/well OmicsLink shRNA expression clone CSHCTR001-CU6 (shCtrl) or clone HSH022476-3-CU6 (shGPR55) from GeneCopoeia (Rockville, MD, USA), using Lipofectamine 2000, according to the manufacturer instructions. Forty-eight hours after transfection, HeLa clones stably expressing shRNAs were selected in growth medium containing 0.3 μg/ml puromycin.
Wild-type HeLa cells plated at a density of 150,000 cells/6-well plate, or cells stable interfered with shCtrl and shGPR55 plated at a density of 120,000 cells/6-well plate, or HeLa cells transiently interfered (48 h after the first interference) were washed twice with HBSS^++, and incubated with the indicated concentrations of the FITC-labeled peptides for the indicated times at 37°C in 1 ml HBSS^++ plus 0.1% fatty-acid-free BSA and 25 mM HEPES, pH 7.5. Then, the cells were washed twice with PBS plus 0.01% Tween-20, and once with PBS, and incubated for 5 min at 37°C with PBS with 2 mM EDTA, detached by scraping, and resuspended in PBS plus 3% BSA. Cell-associated FITC fluorescence was evaluated using FACS, after addition of 4 μg/ml propidium iodide, to exclude dead cells from the FACS gating. Fluorescence intensity was evaluated as % FITC-positive cells and mean fluorescence, recorded before (for peptide binding) and after (for peptide internalization) addition of 0.2% trypan blue to quench the fluorescence of the extracellular bound peptides.

In assay [3] the target is T1, immunoprecipitated HA-GPR55 (Homo sapiens, UniProt Q9Y2T6).
T1 construct: expressed in transfected cells; host or cells: HeLa cells, transient transfection; anti-HA immunoprecipitate on beads
T1 sequence (Q9Y2T6 whole entry): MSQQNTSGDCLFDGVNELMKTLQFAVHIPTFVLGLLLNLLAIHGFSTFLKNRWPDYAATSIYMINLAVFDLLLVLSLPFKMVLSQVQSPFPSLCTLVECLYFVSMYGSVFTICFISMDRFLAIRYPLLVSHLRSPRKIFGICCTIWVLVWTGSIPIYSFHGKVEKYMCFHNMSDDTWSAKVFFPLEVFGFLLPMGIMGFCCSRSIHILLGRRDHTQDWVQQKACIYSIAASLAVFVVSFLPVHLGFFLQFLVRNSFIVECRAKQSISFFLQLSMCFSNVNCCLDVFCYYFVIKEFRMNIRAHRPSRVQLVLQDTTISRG
The assay is described as follows: FITC-peptide binding to immunoprecipitated HA-GPR55. Conditions: FITC-P1 40 μg/ml (26.8 μM), 2 h at 37°C; three independent experiments in triplicate.

For the compound `Cc1ccc(C2(C(=O)N3CCC(n4nc(-c5ccccc5)oc4=O)CC3)CC2)cc1` [ML-191], the “annexin V cell decoration” value in the assay on EHEB cells [1] (biotinylated P1 1 μg/ml alone or streptavidin-bound, ML-191 0.5 μM) is reported as “did not increase annexin V cell decoration, similar to ML-191”. Also, the Cell counts/ml was 578 ±49 ×1,000 in the assay with EHEB cells [2] (replenished every 24 h, DMSO 801 ±18, means ±SEM, n = 4 in duplicate, p <0.01) and 650 ±51 ×1,000 with DeFew cells (replenished every 24 h, DMSO 1053 ±41, means ±SEM, n = 4 in duplicate, p <0.01). In addition, the Growth inhibition result in the assay with EHEB cells [2] (relative to DMSO-treated cells) is reported as “(28%)”; in the assay on DeFew cells (relative to DMSO-treated cells), “(38%)”.

With `COc1cccc2c1C(=O)c1c(O)c3c(c(O)c1C2=O)C[C@@](O)(C(=O)CO)C[C@@H]3O[C@H]1C[C@H](N)[C@H](O)[C@H](C)O1` [doxorubicin], the “annexin V cell decoration, positive control” value in the assay on EHEB cells [1] (doxorubicin 10 μM) is listed as “different from cells treated with the pro-apoptotic agent doxorubicin (10 μM)”.

As to `CC(C)C[C@@H]1NC(=O)[C@H]([C@@H](C)O)NC(=O)[C@@H]2CCCN2C(=O)[C@H](CO)NC(=O)[C@H](CC(N)=O)NC(=O)[C@H](CCCCN)NC(=O)[C@H](CCCCN)NC(=O)[C@@H](NC(=O)CCCCCNC(=S)Nc2ccc3c(c2)C(=O)OC32c3ccc(O)cc3Oc3cc(O)ccc32)CSSC[C@@H](C(=O)O)NC1=O` [FITC-P1] ({FITC-Ahx}-CKKNSPTLC-OH; disulfide 1-9; N-terminus and C-terminus assumed), the “co-localization with GPR55” value in the assay on HA-GPR55 is given as “distributed at the membrane level, with evident spots of co-localization”. In addition, the “decrease in binding, siGPR55 relative to siNT” value in the assay on GPR55 (HeLa cells) (50% reduction in GPR55 expression, four independent experiments) was found to be 26%. Besides, the “less binding to shGPR55 HeLa clones relative to shCtrl” value with GPR55 (HeLa cells) (90% decrease in GPR55 mRNA, three independent experiments) was 34%. Also, the “increase in binding on GPR55 re-expression in shGPR55 clones versus empty vector” value with GPR55 (HeLa cells) (three independent experiments) was 25%. The “binding to glycosylated versus deglycosylated GPR55” value in assay [3] is “bound equally to both glycosylated and deglycosylated GPR55-immunoprecipitates”.
